Laboratory results published in PubChem BioAssay (NCI).
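Dose response: 5 concentrations. Exposure: 48 h. Format: 96-well plates. Endpoint: linear interpolation; highest concentration if not reached. GI50 marks 50% less growth. At the TGI there is no net growth.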

What was measured:
Assay in all cases: NCI tumour cell line growth inhibition, 48 h
[1] = test system: 786-0 renal
[2] = test system: A498 renal
[3] = test system: A549 NSCLC
[4] = test system: ACHN renal
[5] = test system: BT-549 breast
[6] = test system: CAKI-1 renal
[7] = test system: CCRF-CEM leukemia
[8] = test system: COLO 205 colon
[9] = test system: DU-145 prostate
[10] = test system: EKVX NSCLC
[11] = test system: HCC-2998 colon
[12] = test system: HCT-116 colon
[13] = test system: HCT-15 colon
[14] = test system: HL-60(TB) leukemia
[15] = test system: HOP-62 NSCLC
[16] = test system: HOP-92 NSCLC
[17] = test system: HS 578T breast
[18] = test system: HT29 colon
[19] = test system: IGROV1 ovarian
[20] = test system: K-562 leukemia
[21] = test system: KM12 colon
[22] = test system: LOX IMVI melanoma
[23] = test system: M14 melanoma
[24] = test system: MALME-3M melanoma
[25] = test system: MCF7 breast
[26] = test system: MDA-MB-231 breast
[27] = test system: MDA-MB-435
[28] = test system: MOLT-4 leukemia
[29] = test system: NCI-H226 lung
[30] = test system: NCI-H23 lung
[31] = test system: NCI-H460 lung
[32] = test system: NCI-H522 lung
[33] = test system: NCI/ADR-RES ovarian
[34] = test system: OVCAR-3 ovarian
[35] = test system: OVCAR-4 ovarian
[36] = test system: OVCAR-5 ovarian
[37] = test system: OVCAR-8 ovarian
[38] = test system: PC-3 prostate
[39] = test system: RPMI-8226 leukemia
[40] = test system: RXF 393 renal
[41] = test system: SF-268 CNS
[42] = test system: SF-295 CNS
[43] = test system: SF-539 CNS
[44] = test system: SK-MEL-2 melanoma
[45] = test system: SK-MEL-28 melanoma
[46] = test system: SK-MEL-5 melanoma
[47] = test system: SK-OV-3 ovarian
[48] = test system: SN12C renal
[49] = test system: SNB-19 CNS
[50] = test system: SNB-75 CNS
[51] = test system: SR leukemia
[52] = test system: SW-620 colon
[53] = test system: T-47D breast
[54] = test system: TK-10 renal
[55] = test system: U251 CNS
[56] = test system: UACC-257 melanoma
[57] = test system: UACC-62 melanoma
[58] = test system: UO-31 renal

Compound: COc1ccc2c(c1OC)-c1c(c3ccc([N+](=O)[O-])cc3c(=O)n1CCCN)C2=O
- GI50 [1]: 4.76 µM
- TGI [1]: 9.22 µM
- GI50 [2]: 3.03 µM
- TGI [2]: 14.3 µM
- GI50 [3]: 4.37 µM
- TGI [3]: 9.27 µM
- GI50 [4]: 0.749 µM
- TGI [4]: 3.33 µM
- GI50 [5]: 4.19 µM
- TGI [5]: 9.24 µM
- GI50 [6]: 9.49 µM
- TGI [6]: 24.7 µM
- GI50 [7]: 1.27 µM
- TGI [7]: 3.64 µM
- GI50 [8]: > 100 µM
- TGI [8]: > 100 µM
- GI50 [9]: 3.36 µM
- TGI [9]: 7.8 µM
- GI50 [10]: 4.98 µM
- TGI [10]: 11 µM
- GI50 [11]: 3.87 µM
- TGI [11]: 7.8 µM
- GI50 [12]: 4.99 µM
- TGI [12]: 9.23 µM
- GI50 [13]: 3.37 µM
- TGI [13]: 7.11 µM
- GI50 [14]: 1.35 µM
- TGI [14]: 2.63 µM
- GI50 [15]: 10.7 µM
- TGI [15]: 23.9 µM
- GI50 [16]: 12.3 µM
- TGI [16]: 27.1 µM
- GI50 [17]: 5.32 µM
- TGI [17]: 12 µM
- GI50 [18]: 1.6 µM
- TGI [18]: 8 µM
- GI50 [19]: 2.02 µM
- TGI [19]: 6.78 µM
- GI50 [20]: 1.01 µM
- TGI [20]: 3.94 µM
- GI50 [21]: 4.31 µM
- TGI [21]: 10.7 µM
- GI50 [22]: 3.18 µM
- TGI [22]: 7.26 µM
- GI50 [23]: 7.27 µM
- TGI [23]: 20.8 µM
- GI50 [24]: 4.97 µM
- TGI [24]: 10.5 µM
- GI50 [25]: 1.89 µM
- TGI [25]: 13.9 µM
- GI50 [26]: 1.87 µM
- TGI [26]: 3.95 µM
- GI50 [27]: 12.7 µM
- TGI [27]: 28.2 µM
- GI50 [28]: 0.692 µM
- TGI [28]: 3.68 µM
- GI50 [29]: 3.95 µM
- TGI [29]: 8.79 µM
- GI50 [30]: 4.7 µM
- TGI [30]: 9.19 µM
- GI50 [31]: 3.47 µM
- TGI [31]: 12.3 µM
- GI50 [32]: 3.54 µM
- TGI [32]: 9.33 µM
- GI50 [33]: 4.83 µM
- TGI [33]: 9.76 µM
- GI50 [34]: 16.2 µM
- TGI [34]: 32.6 µM
- GI50 [35]: 5.49 µM
- TGI [35]: 12.1 µM
- GI50 [36]: 5.31 µM
- TGI [36]: 9.74 µM
- GI50 [37]: 3.53 µM
- TGI [37]: 12.9 µM
- GI50 [38]: 4.59 µM
- TGI [38]: 10.5 µM
- GI50 [39]: 1.01 µM
- TGI [39]: 3.32 µM
- GI50 [40]: 4.32 µM
- TGI [40]: 10.1 µM
- GI50 [41]: 3.54 µM
- TGI [41]: 13.6 µM
- GI50 [42]: 5.72 µM
- TGI [42]: 11.5 µM
- GI50 [43]: 4.42 µM
- TGI [43]: 9.02 µM
- GI50 [44]: 4.56 µM
- TGI [44]: 9.77 µM
- GI50 [45]: 5.34 µM
- TGI [45]: 10.4 µM
- GI50 [46]: 4.33 µM
- TGI [46]: 8.82 µM
- GI50 [47]: 7.9 µM
- TGI [47]: 17.6 µM
- GI50 [48]: 3.79 µM
- TGI [48]: 7.86 µM
- TGI [49]: > 20.2 µM
- TGI [50]: 1.56 µM
- GI50 [51]: 0.1 µM
- TGI [51]: 0.272 µM
- GI50 [52]: 0.573 µM
- TGI [52]: 4.81 µM
- TGI [53]: > 20.1 µM
- GI50 [54]: 5.72 µM
- TGI [54]: 12 µM
- GI50 [55]: 1.83 µM
- TGI [55]: 5.76 µM
- GI50 [56]: 4.97 µM
- TGI [56]: 9.74 µM
- GI50 [57]: 3.52 µM
- TGI [57]: 7.32 µM
- GI50 [58]: 3.81 µM
- TGI [58]: 7.89 µM
